Source: patent US9375459B2, “Cyclic peptides with an anti-neoplasic and anti-angiogenic activity” (priority 2011, dated 2016)
Where a SMILES comes first, the peptide text is derived from it. Where no end group is shown, it is not given here.

Tested on: human tumor cells
Assay: Cytotoxic activity screening of peptide library on human tumor cell lines, SRB method
Format: cell-based
Settings: SRB method; cytotoxic = dose-dependent 50% inhibition of proliferation, GI50 below 100 μM in at least one cell line
Protocol: Negative control cells were cultured on a volume of vehicle equal to that of the experimental samples. An “x-y” curve (dose-response) was established with the percent of surviving cells, compared in respect to the negative control cells, and the following parameters were estimated: 50% growth inhibition (GI50); Total growth inhibition (TGI); and the lethal concentration 50 (LC50), that is the concentration causing the 50% of cell death (Boyd M R, Paull K D, and Rubinstein L R (1992) “Data display and analysis strategies for the NCI Disease Oriented In-Vitro Antitumor Drug Screen, in Cytotoxic Anticancer Drugs: Models and Concept for Drug Discovery and Development” (Baleriote F A, Corbett T H and Baker L H eds) pp 11-34, Kluwer Academia Publishers, Boston).
Were considered as cytotoxic peptides all those peptides being able of inhibiting 50% of the cellular proliferation, in a dose-dependent manner, and showing GI50 values below 100 μM, at least in one of the cell lines studied. The human tumor cell lines used were: HEp-2 (larynx carcinoma), A549 (lung epithelial adenocarcinoma), M14 (melanoma), Colo 205 (colon adenocarcinoma), Ls174T (colon adenocarcinoma), LnCAP (prostate carcinoma), PC-3 (prostate carcinoma) and H 125 (non-small cell lung adenocarcinoma). Represented are primary sequences for the designed peptides, the code used for its generation and their respective cytotoxic capacity on human tumor cells.

| Molecule | Cytotoxic activity in vitro |
| --- | --- |
| CC[C@H](C)[C@H](NC(=O)[C@H](CCCNC(=N)N)NC(=O)[C@H](CCC(N)=O)NC(=O)[C@H](CC(N)=O)NC(=O)[C@H](C)NC(=O)[C@@H](NC(=O)[C@H](Cc1ccc(O)cc1)NC(=O)CNC(=O)[C@H](CO)NC(=O)[C@H](Cc1ccccc1)NC(=O)[C@H](CC(=O)O)NC(=O)[C@H](Cc1ccccc1)NC(=O)[C@@H](NC(=O)[C@H](CC(=O)O)NC(=O)[C@H](CC(N)=O)NC(=O)CNC(=O)CNC(=O)[C@H](C)NC(=O)[C@@H](N)CC(=O)O)[C@@H](C)O)[C@@H](C)O)C(=O)N[C@@H](CC(N)=O)C(N)=O [Peptide M07P39] (H-DAGGNDTFDFSGYTANQRIN-NH2) | − (symbol − indicates its absence, following criteria established in Example 2) |
| CC[C@H](C)[C@H](NC(=O)[C@H](CC(=O)O)NC(=O)[C@H](CCCCN)NC(=O)CNC(=O)[C@H](C)NC(=O)CNC(=O)CNC(=O)[C@H](Cc1c[nH]c2ccccc12)NC(=O)[C@H](CC(C)C)NC(=O)[C@H](CCC(=O)O)NC(=O)[C@@H](N)CC(=O)O)C(=O)N[C@@H](Cc1ccccc1)C(=O)N[C@H](C(=O)N[C@@H](Cc1ccccc1)C(=O)N[C@@H](CO)C(=O)N[C@@H](C)C(=O)N[C@@H](C)C(=O)N[C@@H](CO)C(=O)N[C@@H](CC(=O)O)C(=O)N[C@@H](CO)C(N)=O)C(C)C [Peptide O07P102] (H-DELWGGAGKDIFVFSAASDS-NH2) | − (symbol − indicates its absence, following criteria established in Example 2) |
| CC[C@H](C)[C@H](N)C(=O)N[C@@H](Cc1ccccc1)C(=O)N[C@H](C(=O)N[C@@H](Cc1ccccc1)C(=O)N[C@@H](CO)C(=O)N[C@@H](C)C(=O)N[C@@H](C)C(=O)N[C@@H](CO)C(=O)N[C@@H](CC(=O)O)C(=O)N[C@@H](CO)C(=O)N[C@@H](C)C(=O)N1CCC[C@H]1C(=O)NCC(=O)N[C@@H](C)C(=O)N[C@@H](CO)C(=O)N[C@@H](CC(=O)O)C(=O)N[C@@H](Cc1c[nH]c2ccccc12)C(=O)N[C@H](C(=O)N[C@@H](CCCNC(=N)N)C(=O)N[C@@H](CC(=O)O)C(N)=O)[C@@H](C)CC)C(C)C [Peptide O07P103] (H-IFVFSAASDSAPGASDWIRD-NH2) | − (symbol − indicates its absence, following criteria established in Example 2) |
| CC[C@H](C)[C@H](NC(=O)CNC(=O)[C@H](CCCCN)NC(=O)[C@H](CCC(N)=O)NC(=O)[C@H](Cc1ccccc1)NC(=O)[C@H](CC(=O)O)NC(=O)[C@H](CCCNC(=N)N)NC(=O)[C@@H](NC(=O)[C@H](Cc1c[nH]c2ccccc12)NC(=O)[C@H](CC(=O)O)NC(=O)[C@H](CO)NC(=O)[C@H](C)NC(=O)CNC(=O)[C@@H]1CCCN1C(=O)[C@H](C)N)[C@@H](C)CC)C(=O)N[C@@H](CC(=O)O)C(=O)N[C@@H](CCCCN)C(=O)N[C@H](C(=O)N[C@@H](CC(=O)O)C(=O)N[C@@H](CC(C)C)C(N)=O)[C@@H](C)CC [Peptide O07P104] (H-APGASDWIRDFQKGIDKIDL-NH2) | − (symbol − indicates its absence, following criteria established in Example 2) |
| CC[C@H](C)[C@H](NC(=O)CNC(=O)[C@H](CCCCN)NC(=O)[C@H](CCC(N)=O)NC(=O)[C@@H](N)Cc1ccccc1)C(=O)N[C@@H](CC(=O)O)C(=O)N[C@@H](CCCCN)C(=O)N[C@H](C(=O)N[C@@H](CC(=O)O)C(=O)N[C@@H](CC(C)C)C(=O)N[C@@H](CO)C(=O)N[C@@H](Cc1ccccc1)C(=O)N[C@@H](Cc1ccccc1)C(=O)N[C@@H](CC(N)=O)C(=O)N[C@@H](CCCCN)C(=O)N[C@@H](CCC(=O)O)C(=O)N[C@@H](C)C(=O)N[C@@H](CC(N)=O)C(=O)N[C@@H](CO)C(=O)N[C@@H](CO)C(N)=O)[C@@H](C)CC [Peptide O07P105] (H-FQKGIDKIDLSFFNKEANSS-NH2) | − (symbol − indicates its absence, following criteria established in Example 2) |
| CC[C@H](C)[C@H](NC(=O)[C@H](Cc1ccccc1)NC(=O)[C@H](CC(=O)O)NC(=O)[C@H](CO)NC(=O)[C@H](CO)NC(=O)[C@H](CC(N)=O)NC(=O)[C@H](C)NC(=O)[C@H](CCC(=O)O)NC(=O)[C@H](CCCCN)NC(=O)[C@H](CC(N)=O)NC(=O)[C@H](Cc1ccccc1)NC(=O)[C@H](Cc1ccccc1)NC(=O)[C@@H](N)CO)C(=O)N[C@@H](Cc1c[nH]cn1)C(=O)N[C@@H](Cc1ccccc1)C(=O)N[C@H](C(=O)N[C@@H](CC(=O)O)C(=O)N[C@@H](Cc1c[nH]cn1)C(=O)N[C@@H](Cc1ccccc1)C(=O)N[C@@H](CO)C(N)=O)C(C)C [Peptide O07P106] (H-SFFNKEANSSDFIHFVDHFS-NH2) | − (symbol − indicates its absence, following criteria established in Example 2) |
| CC[C@H](C)[C@H](NC(=O)[C@H](Cc1ccccc1)NC(=O)[C@@H](N)CC(=O)O)C(=O)N[C@@H](Cc1c[nH]cn1)C(=O)N[C@@H](Cc1ccccc1)C(=O)N[C@H](C(=O)N[C@@H](CC(=O)O)C(=O)N[C@@H](Cc1c[nH]cn1)C(=O)N[C@@H](Cc1ccccc1)C(=O)N[C@@H](CO)C(=O)NCC(=O)N[C@H](C(=O)N[C@@H](C)C(=O)NCC(=O)N[C@@H](CCC(=O)O)C(=O)N[C@@H](C)C(=O)N[C@@H](CC(C)C)C(=O)N[C@@H](CC(C)C)C(=O)N[C@@H](CO)C(=O)N[C@@H](Cc1ccc(O)cc1)C(N)=O)[C@@H](C)O)C(C)C [Peptide O07P107] (H-DFIHFVDHFSGTAGEALLSY-NH2) | − (symbol − indicates its absence, following criteria established in Example 2) |
| CC(C)C[C@H](NC(=O)[C@H](C)NC(=O)[C@H](CCC(=O)O)NC(=O)CNC(=O)[C@H](C)NC(=O)[C@@H](NC(=O)CN)[C@@H](C)O)C(=O)N[C@@H](CC(C)C)C(=O)N[C@@H](CO)C(=O)N[C@@H](Cc1ccc(O)cc1)C(=O)N[C@@H](CC(N)=O)C(=O)N[C@@H](C)C(=O)N[C@@H](CO)C(=O)N[C@@H](CO)C(=O)N[C@@H](CC(N)=O)C(=O)N[C@H](C(=O)N[C@H](C(=O)N[C@@H](CC(=O)O)C(=O)N[C@@H](CC(C)C)C(=O)N[C@@H](CO)C(N)=O)[C@@H](C)O)C(C)C [Peptide O07P108] (H-GTAGEALLSYNASSNVTDLS-NH2) | − (symbol − indicates its absence, following criteria established in Example 2) |
| CC[C@H](C)[C@H](NC(=O)[C@H](Cc1ccccc1)NC(=O)[C@H](CC(=O)O)NC(=O)[C@@H](NC(=O)[C@H](C)NC(=O)[C@@H](NC(=O)[C@@H](N)CC(=O)O)C(C)C)[C@@H](C)O)C(=O)N[C@H](C(N)=O)C(C)C [Peptide U07P78, DVATDFIV- amide] (H-DVATDFIV-NH2) | − (symbol − indicates its absence, following criteria established in Example 2) |
| CC[C@H](C)[C@H](NC(=O)[C@@H](NC(=O)[C@H](CC(=O)O)NC(=O)[C@H](CC(N)=O)NC(=O)CNC(=O)[C@@H](N)CO)C(C)C)C(=O)N[C@H](C(=O)NCC(=O)N[C@@H](CC(N)=O)C(=O)N[C@@H](C)C(=O)N[C@@H](C)C(=O)N[C@@H](CC(N)=O)C(=O)N[C@@H](CC(N)=O)C(=O)N[C@H](C(=O)N[C@@H](CC(C)C)C(=O)N[C@@H](CCCCN)C(=O)NCC(=O)NCC(=O)N[C@@H](C)C(=O)NCC(N)=O)C(C)C)C(C)C [Peptide Y07P48] (H-SGNDVIVGNAANNVLKGGAG-NH2) | − (symbol − indicates its absence, following criteria established in Example 2) |
| NSQKVIFAAWDAGGNDTFDF- amide (NSQKVIFAAWDAGGNDTFDF-NH2) [Peptide M07P38] | − (symbol − indicates its absence, following criteria established in Example 2) |
